Assay results reported in patent US20180303859A1, “Agent For Preventing And/Or Treating Scleroderma” (THE UNIVERSITY OF TOKYO, priority 2015, published 2018).

Tests used:
[1] = test system: BLM-induced scleroderma model mice; experiment: Study on fibrosis in BLM-induced scleroderma model mice (dermal thickness, collagen, α-SMA-positive fibroblasts, skin mRNA); assay type: in vivo, C57BL/6 mice
Method: To the skin of the back of 8-week-old C57BL/6 mice (wild type), 1 mg/ml bleomycin (BLM) solution prepared with phosphate buffered saline (PBS) was intracutaneously injected at a dose of 300 μg every day for four weeks to prepare BLM-induced scleroderma model mice. A control group was provided by subcutaneous injection of the same amount of PBS. At the same time, monoammonium glycyrrhizinate (Cokey Co., Ltd.) dissolved in PBS was intraperitoneally administered at a dose of 30 mg/kg every day for four weeks. A control group was provided by intraperitoneal administration of the same amount of PBS. Using a skin biopsy punch with a diameter of 6 mm, the skin tissue at the injection site was collected, and subjected to Hematoxylin & Eosin staining to measure the dermal thickness. Further, a skin sample collected by the same method was subjected to quantification of the collagen content using a QuickZyme Total Collagen Assay kit (QuickZyme BioSciences B.V., Netherlands).
Paraffin sections were prepared using the skin of the back at the injection site of each BLM-induced scleroderma model mouse, and reacted with an anti-α-smooth muscle actin (α-SMA) antibody (Sigma-Aldrich, St. Louis, Mo., USA) according to the manufacturer's instruction provided for the VEVTOR M.O.M Immunodetection Kit (Vector laboratories, Burlingame, Calif., USA), followed by coloring with DAB (0.2 mg/ml, DOJINDO LABORATORIES, Kumamoto, JAPAN). For each mouse skin sample, three photographs of the superficial dermal layer were randomly taken for ×400 viewing areas, and the numbers of spindle-shaped cells positive for α-SMA were counted. Their average was regarded as the number of α-SMA-positive fibroblasts in the mouse. Comparison was made between the glycyrrhizic acid group and the control group.
Further, RNA was extracted from the skin of the back at the injection site of each BLM-induced scleroderma model mouse using an RNeasy min kit (Qiagen Valencia, Calif., USA), and then reverse-transcribed into cDNA using iScript cDNA Synthesis Kits (Bio-Rad, Hercules, Calif., USA). Measurement by quantitative real-time PCR was carried out using a SYBR Green PCR Master Mix (Life technologies) with ABI prism 7000 (Life technologies). The measurement was carried out in triplicate for each sample to calculate the average value. As a reference gene, Gapdh was used. The relative expression level of mRNA of the subject gene was calculated by the ^ΔΔCt method. Primers having the following sequences were used.

[2] = test system: BLM-induced scleroderma model mice; experiment: Study on inflammation and immune abnormality in BLM-induced scleroderma model mice (FACS of CD4-positive cells, skin cytokine mRNA); assay type: in vivo
Method: BLM-induced scleroderma model mice were prepared by the same treatment as in Example 1 except that the bleomycin administration treatment was carried out for only one week. On the last day of the administration, bilateral inguinal lymph nodes and the spleen were removed from each mouse. After mashing the lymph nodes, lymphocytes were separated therefrom. To blood cells removed from the spleen, RBC lysis buffer (0.0017 M Trizma, Sigma-Aldrich, 0.1 M NH4Cl 2.675 g, Sigma-Aldrich) was added to separate lymphocytes. The lymphocytes were subjected to staining of surface antigens using an anti-CD3 antibody (17A2), anti-CD4 antibody (RM4-5), and anti-CD8a antibody (53-6.7). Further, stimulation was carried out with 10 ng/ml phorbol myristate acetate (Sigma-Aldrich), 1 μg/ml ionomycin (Sigma-Aldrich), and 1 μg/ml brefeldin A ([…]; BD PharMingen) for four hours, and staining of intracellular antigens was carried out using an anti-interleukin (IL)-4 antibody (11B11), anti-IL17A antibody (TC11-18HC0.1), and anti-interferon (IFN)-γ antibody (XMG1.2) (all antibodies were manufactured by BioLegend, San Diego, Calif., USA). The stained lymphocytes were analyzed using a FACS Verseflow cytometer (BD Biosciences).
Further, from the skin of the back at the injection site of each BLM-induced scleroderma model mouse, RNA was extracted by the same method as in Example 1, and the mRNA levels of IL4, IL1 b, and arginase were measured. Primers having the following sequences were used.

[3] = test system: BLM-induced scleroderma model mice; experiment: Endothelial-to-mesenchymal transition (Endo-MT) in skin of BLM-induced scleroderma model mice (VE-cadherin/FSP1 immunostaining, Snail1 mRNA); assay type: in vivo
Method: Paraffin sections were prepared using skin samples of the injection site of BLM-induced scleroderma model mice prepared under the same conditions as in Example 1. A rabbit anti-VE-cadherin antibody (Santa Cruz Biotechnolog) and a goat anti-fibroblast-specific protein 1 (FSP1) antibody (abcam, Cambridge, UK) as primary antibodies, and an FITC-conjugated donkey anti-rabbit IgG antibody (Santa Cruz Biotechnolog) and an Alexa Fluor donkey 555 anti-goat IgG antibody (Invitrogen, Carlsbad, Calif., USA) as secondary antibodies, were reacted with the sections, and nuclear staining was performed using Vectashield with DAPI (Vector Laboratories, Burlingame, Calif., USA). Observation was carried out using Bio Zero BZ-8000 (Keyence, Osaka, Japan) at wavelengths of 495 nm (green), 565 nm (red), and 400 nm (blue). The number of cells stained with both FSP1 and VE-Cadherin, which are observed as green color and red color, respectively (cells that had undergone Endo-MT), was compared. Further, from the skin samples, RNA was extracted by the same method as in Example 1, and the mRNA level of Snail1 was measured. Primers having the following sequences were used.

[4] = test system: mice deficient for vascular endothelial cell-specific Fli1 (Fli1 flox/flox; Tie2-Cre); experiment: Extravasation of Evans blue dye in vascular endothelial cell-specific Fli1 deficient mice; assay type: in vivo; settings: vascular endothelial cell-specific Fli1 knockout mice; intraperitoneal administration, two weeks; absorbance at 620 nm
Method: Subsequently, under the same conditions as in Example 1, monoammonium glycyrrhizinate or PBS was intraperitoneally administered to 10-week-old mice deficient for vascular endothelial cell-specific Fli1 (Fli1 flox/flox; Tie2-Cre: see American Journal of Pathology, April 2010 Volume 176, Issue 4, p 1983-1998), which are model mice for angiopathy in scleroderma, or to control mice (Fli1 flox/flox). Two weeks later, 200 μl of Evans blue dye (0.5% in PBS) was administered into the tail vein of each mouse, and the mouse was euthanized 30 minutes thereafter, followed by incision of the skin from the middle of the abdomen. Cutaneous blood vessels were macroscopically observed from the dermal side to evaluate the degree of leakage of the dye. Further, for measurement of extravasation of Evans blue, skin was collected from three positions using a skin biopsy punch with a diameter of 4 mm, and then allowed to dissolve in formamide at 37° C. for 24 hours, followed by measurement of the absorbance at a wavelength of 620 nm using a microplate reader.

[5] = skin of BLM-induced scleroderma model mice, quantitative real-time PCR
[6] = lymph nodes or spleen, BLM for one week, FACS
[7] = skin tissue of BLM-induced scleroderma model mice

CC1(C)[C@@H](O[C@H]2O[C@H](C(=O)O)[C@@H](O)[C@H](O)[C@H]2O[C@@H]2O[C@H](C(=O)O)[C@@H](O)[C@H](O)[C@H]2O)CC[C@]2(C)[C@H]3C(=O)C=C4[C@@H]5C[C@@](C)(C(=O)O)CC[C@]5(C)CC[C@@]4(C)[C@]3(C)CC[C@@H]12 [glycyrrhizic acid]
number of myofibroblasts (α-SMA-positive fibroblasts) in the skin ([1]; BLM-induced scleroderma model mice, 30 mg/kg i.p. daily, four weeks): significant decrease
dermal thickness (thickening of the dermis) ([1]; BLM-induced scleroderma model mice, 30 mg/kg intraperitoneally every day for four weeks): reduced
amount of collagen fibers ([1]; BLM-induced scleroderma model mice, skin at injection site, 30 mg/kg i.p. daily, four weeks): decreased
amount of collagen fibers ([1]; control mice not subjected to BLM induction, 30 mg/kg i.p. daily, four weeks): did not cause any change
dermal thickness ([1]; control mice not subjected to BLM induction, 30 mg/kg intraperitoneally every day for four weeks): did not cause any change
mRNA of Col1a1 [1, 5]: significant decreases
mRNA of Col1a2 [1, 5]: significant decreases
mRNA of Col3a1 [1, 5]: significant decreases
mRNA of Mmp13 (collagenase) [1, 5]: significant increase
mRNA of thrombospondin (Thbs1) [1, 5]: decrease
ratio of IFN-γ-positive cells among CD4-positive cells [2, 6]: did not cause any change
ratio of IL17A-positive cells among CD4-positive cells [2, 6]: did not cause any change
ratio of IL4-positive cells among CD4-positive T cells ([2]; lymph nodes, BLM for one week, FACS): significant decreases
mRNA of arginase (marker for M2 macrophages) [2, 7]: decreased
mRNA of interleukin 1 b [2, 7]: decreased
mRNA of interleukin 4 [2, 7]: decreased
ratio of IL4-positive cells among CD4-positive T cells ([2]; spleen, BLM for one week, FACS): significant decreases
mRNA level of Snail1 [3]: significantly decreased
increase in cells that have undergone Endo-MT (stained for both VE-cadherin and FSP1) ([3]; immunostaining): suppressed
extravasation of Evans blue [4]: significantly decreased
